# According to patent US8992982B2, “Formulation of indomethacin” (Iceutica Pty Ltd., priority 2009, dated 2015):
# How the values were obtained:
# [1] = tested on: pain after surgical removal of impacted third molars; assay: Phase 2 dental pain study: 2-stopwatch method (time to onset of analgesia, first perceptible and meaningful pain relief); type: in vivo, human; conditions: ITT
# Method: (§1) Subjects assessed their baseline pain intensity (VAS) before receiving study drug (predose, Time 0) and their pain intensity (VAS) and pain relief (5-point categorical scale) at 15, 30, and 45 minutes and 1, 1.5, 2, 3, 4, 5, 6, 7, and 8 hours after Time 0 and immediately before the first dose of rescue medication. The 2-stopwatch method was used to record the time to perceptible and time to meaningful pain relief, respectively. Acetaminophen (1000 mg) was permitted as the initial rescue medication. Subjects were encouraged to wait at least 60 minutes after receiving study drug before taking rescue medication. […] Other restrictions included the following: no alcohol use from 24 hours before surgery until discharge on Day 1; nothing by mouth (NPO) from midnight before surgery until 1 hour after surgery; clear liquids only from 1 hour after surgery until 1 hour after dosing; and advancement of diet 1 hour after dosing according to standard practice.
# (§2) The secondary efficacy endpoints were as follows: • TOTPAR over 0 to 4 hours (TOTPAR-4) after Time 0 • Visual Analogue Scale (VAS) pain intensity difference (VASPID) at each scheduled time point after Time 0 • Time to onset of analgesia (measured as time to perceptible pain relief confirmed by meaningful pain relief) • VAS pain intensity score at each scheduled time point • VAS summed pain intensity difference (VASSPID) over 0 to 4 hours (VASSPID-4) and over 0 to 8 hours (VASSPID-8) after Time 0 • Pain relief score at each scheduled time point after Time 0 • Peak pain relief • Time to peak pain relief • Time to first perceptible pain relief • Time to meaningful pain relief • Proportion of subjects using rescue medication • Time to first use of rescue medication (duration of analgesia) • Patient's global evaluation of study drug Safety:
# For each time-to-event endpoint, the Kaplan-Meier method was used to evaluate the treatment effect. Time to onset of analgesia (measured as time to perceptible pain relief confirmed by meaningful pain relief) was based on data collected using the 2-stopwatch method. […] A summary table provided the number of subjects analyzed, the number of subjects censored, estimates for the quartiles, and 95% confidence intervals (CIs) for the estimated median. P values from log-rank tests were also used to examine treatment effect. Cox proportional hazard models were used to explore potential covariates such as sex, baseline pain intensity, and surgical trauma rating, if appropriate.
# [2] = tested on: pain after surgical removal of impacted third molars; assay: Phase 2 dental pain study: VAS pain intensity (VAS score, VASPID, VASSPID); type: in vivo, human; set-up: VASPID, Median / VASPID, Mean / VAS pain intensity score, Median / VASSPID-8, Median: scale not given here
# Method: On Day 1, eligible subjects underwent extraction of 2 or more third molars, at least 1 of which had to be a fully or partially bone-impacted mandibular molar. If only 2 molars were removed, then they had to be ipsilateral.
# as §1, §2
# For continuous secondary endpoints such as pain intensity score, VASPID at each scheduled time point, peak pain intensity, TOTPAR-4, VASSPID-4, and VASSPID-8, descriptive statistics (e.g., mean, standard error, median, minimum, and maximum) were provided for each treatment regimen. Nominal P values from 2-sample tests comparing the placebo group with other treatment groups were provided, but no formal statistical inferences were drawn on the basis of these tests.
# For pain intensity, missing observations were imputed using a baseline-observation-carried-forward (BOCF) approach for subjects who withdrew from the study due to lack of efficacy or an AE/intolerance to study drug. The BOCF imputation was applied in place of all scheduled assessments after the time of early termination due to lack of efficacy or an AE/intolerance to study drug using the baseline observation taken before Time 0.
# For subjects who withdrew from the study for reasons other than lack of efficacy or an AE/intolerance to study drug, missing observations for pain intensity and pain relief were imputed using a last-observation-carried-forward (LOCF) approach. The LOCF imputation was applied in place of all scheduled assessments after the time of early termination for reasons other than lack of efficacy or an AE/intolerance to study drug.
# For subjects who took any dose of rescue medication, subsequent measures after the first dose of rescue mediation were disregarded. Instead, all scheduled assessments after the first dose of rescue medication were imputed using BOCF and the baseline observation taken before Time 0. (Baseline value for pain relief was 0.)
# [3] = 15 minutes after Time 0, ITT, 100-mm VAS
smiles,measurement,setting,value
Cc1ccc(-c2cc(C(F)(F)F)nn2-c2ccc(S(N)(=O)=O)cc2)cc1 [Celecoxib],"Hazard ratio vs placebo, Cox proportional hazards model (time to first perceptible pain relief)",[1]; 400 mg,1.7
same,"Hazard ratio vs placebo, Cox proportional hazards model (time to meaningful pain relief)",[1]; 400 mg,3.2
same,"Time to first perceptible pain relief: subjects analyzed, %",[1]; 400 mg,(92.2) %
same,"Time to first perceptible pain relief: subjects censored, %",[1]; 400 mg,(7.8) %
same,"Time to meaningful pain relief: subjects analyzed, %",[1]; 400 mg,(68.6) %
same,"Time to meaningful pain relief: subjects analyzed, n",[1]; 400 mg,35
same,"Time to meaningful pain relief: subjects censored, %",[1]; 400 mg,(31.4) %
same,"Time to meaningful pain relief: subjects censored, n",[1]; 400 mg,16
same,"Time to onset of analgesia, Hazard ratio","[1]; Cox proportional hazards model, vs placebo",4.4
same,Time to onset of analgesia: subjects analyzed,[1],(68.6) %
same,"Time to first perceptible pain relief, Mean","[1]; Kaplan-Meier estimate, 400 mg",0.9 h
same,"Time to first perceptible pain relief, Q25","[1]; Kaplan-Meier estimate, 400 mg",0.35 h
same,"Time to first perceptible pain relief, Q50","[1]; Kaplan-Meier estimate, 400 mg",0.60 h
same,"Time to first perceptible pain relief, Q75","[1]; Kaplan-Meier estimate, 400 mg",0.97 h
same,"Time to meaningful pain relief, Mean","[1]; Kaplan-Meier estimate, 400 mg",2.6 h
same,"Time to meaningful pain relief, Q25","[1]; Kaplan-Meier estimate, 400 mg",0.75 h
same,"Time to meaningful pain relief, Q50","[1]; Kaplan-Meier estimate, 400 mg",1.33 h
same,"Time to meaningful pain relief, Q75","[1]; Kaplan-Meier estimate, 400 mg",4.27 h
same,"Time to onset of analgesia, Mean",[1]; Kaplan-Meier estimate,0.9 h
same,"Time to onset of analgesia, Q25",[1]; Kaplan-Meier estimate,0.38 h
same,"Time to onset of analgesia, Q50",[1]; Kaplan-Meier estimate,0.72 h
same,Time to onset of analgesia: subjects censored,[1]; right-censored at 8 hours,(31.4) %
same,"VASSPID-4, Mean (SD)","[2]; 0 to 4 hours after Time 0, ITT",127.971 (99.1934)
same,"VASSPID-4, Median","[2]; 0 to 4 hours after Time 0, ITT",140.250
same,"VASSPID-8, Mean (SD)","[2]; 0 to 8 hours after Time 0, ITT",284.265 (229.4447)
same,"VASSPID-8, Median","[2]; 0 to 8 hours after Time 0, ITT",346.500
same,"VAS pain intensity score, Median","[2]; 15 minutes after Time 0, ITT",71.00
same,"VASPID, Median","[2]; 15 minutes after Time 0, ITT",1.00
same,"VAS pain intensity score, Mean",[2]; [3],70.55
same,"VASPID, Mean",[2]; [3],3.35
same,"VAS pain intensity score, Mean","[2]; 30 minutes after Time 0, ITT",67.25
same,"VAS pain intensity score, Median","[2]; 30 minutes after Time 0, ITT",66.00
same,"VASPID, Mean","[2]; 30 minutes after Time 0, ITT",6.65
same,"VASPID, Median","[2]; 30 minutes after Time 0, ITT",3.00
same,"VAS pain intensity score, Mean","[2]; 45 minutes after Time 0, ITT",57.47
same,"VAS pain intensity score, Median","[2]; 45 minutes after Time 0, ITT",61.00
same,"VASPID, Mean","[2]; 45 minutes after Time 0, ITT",16.43
same,"VASPID, Median","[2]; 45 minutes after Time 0, ITT",10.00
same,"VAS pain intensity score, Mean","[2]; 1 hour after Time 0, ITT",49.08
same,"VAS pain intensity score, Median","[2]; 1 hour after Time 0, ITT",50.00
same,"VASPID, Mean","[2]; 1 hour after Time 0, ITT",24.82
same,"VASPID, Median","[2]; 1 hour after Time 0, ITT",17.00
same,"VAS pain intensity score, Mean","[2]; 2 hours after Time 0, ITT",36.65
same,"VAS pain intensity score, Median","[2]; 2 hours after Time 0, ITT",36.00
same,"VASPID, Mean","[2]; 2 hours after Time 0, ITT",37.25
same,"VASPID, Median","[2]; 2 hours after Time 0, ITT",32.00
same,"VAS pain intensity score, Mean","[2]; 3 hours after Time 0, ITT",32.29
same,"VAS pain intensity score, Median","[2]; 3 hours after Time 0, ITT",28.00
same,"VASPID, Mean","[2]; 3 hours after Time 0, ITT",41.61
same,"VASPID, Median","[2]; 3 hours after Time 0, ITT",50.00
same,"VAS pain intensity score, Mean","[2]; 4 hours after Time 0, ITT",33.94
same,"VAS pain intensity score, Median","[2]; 4 hours after Time 0, ITT",25.00
same,"VASPID, Mean","[2]; 4 hours after Time 0, ITT",39.96
same,"VASPID, Median","[2]; 4 hours after Time 0, ITT",46.00
same,"VAS pain intensity score, Mean","[2]; 5 hours after Time 0, ITT",33.69
same,"VAS pain intensity score, Median","[2]; 5 hours after Time 0, ITT",22.00
same,"VASPID, Mean","[2]; 5 hours after Time 0, ITT",40.22
same,"VASPID, Median","[2]; 5 hours after Time 0, ITT",50.00
same,"VAS pain intensity score, Mean","[2]; 6 hours after Time 0, ITT",35.06
same,"VAS pain intensity score, Median","[2]; 6 hours after Time 0, ITT",20.00
same,"VASPID, Mean","[2]; 6 hours after Time 0, ITT",38.84
same,"VASPID, Median","[2]; 6 hours after Time 0, ITT",50.00
same,"VAS pain intensity score, Mean","[2]; 7 hours after Time 0, ITT",35.55
same,"VAS pain intensity score, Median","[2]; 7 hours after Time 0, ITT",21.00
same,"VASPID, Mean","[2]; 7 hours after Time 0, ITT",38.35
same,"VASPID, Median","[2]; 7 hours after Time 0, ITT",44.00
same,"VAS pain intensity score, Mean","[2]; 8 hours after Time 0, ITT",35.02
same,"VAS pain intensity score, Median","[2]; 8 hours after Time 0, ITT",22.0
same,"VASPID, Mean","[2]; 8 hours after Time 0, ITT",38.88
same,"VASPID, Median","[2]; 8 hours after Time 0, ITT",49.00
same,"VAS pain intensity score, Mean","[2]; […] after Time 0, ITT",43.98
same,"VAS pain intensity score, Median","[2]; […] after Time 0, ITT",48.00
same,"VASPID, Mean","[2]; […] after Time 0, ITT",29.92
same,"VASPID, Median","[2]; […] after Time 0, ITT",26.00
same,Time point from which mean VASPID was statistically significantly greater and mean VAS pain intensity less than placebo,[2]; onward after Time 0,≥ 30 min
